Results: US20250361230A1, “LATS Inhibitors and Uses Thereof” (The USA, as Represented by the Secretary, Dept. of Heath …, priority 2022, published 2025)

Legend:
[1] = target: T1, AKT Kinase-NanoLuc fusion in HEK-293 cells (Homo sapiens, UniProt P31749); experiment: NanoBRET target engagement assay in transfected HEK-293 cells, AKT; format: cell-based; settings: cellular; read-out: AKT (Cellular) IC50
T1 construct: host or cells: HEK-293
How it was run: (§1)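 HEK-293 cells transiently transfected with kinase-NanoLuc fusion plasmid for 22-24 h, then incubated with compound and NanoBRET tracer for 1 hour at 37° C. After substrate plus extracellular NanoLuc inhibitor addition, 460 and 600 nm emissions read; no-tracer-corrected BRET ratio used to derive IC50 values.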

[2] = target: T2, LATS1 Kinase-NanoLuc fusion in HEK-293 cells (Homo sapiens, UniProt O95835); experiment: NanoBRET target engagement assay in transfected HEK-293 cells, LATS1; format: cell-based; settings: cellular
T2 construct: host or cells: HEK-293
T2 sequence (O95835 1-1130): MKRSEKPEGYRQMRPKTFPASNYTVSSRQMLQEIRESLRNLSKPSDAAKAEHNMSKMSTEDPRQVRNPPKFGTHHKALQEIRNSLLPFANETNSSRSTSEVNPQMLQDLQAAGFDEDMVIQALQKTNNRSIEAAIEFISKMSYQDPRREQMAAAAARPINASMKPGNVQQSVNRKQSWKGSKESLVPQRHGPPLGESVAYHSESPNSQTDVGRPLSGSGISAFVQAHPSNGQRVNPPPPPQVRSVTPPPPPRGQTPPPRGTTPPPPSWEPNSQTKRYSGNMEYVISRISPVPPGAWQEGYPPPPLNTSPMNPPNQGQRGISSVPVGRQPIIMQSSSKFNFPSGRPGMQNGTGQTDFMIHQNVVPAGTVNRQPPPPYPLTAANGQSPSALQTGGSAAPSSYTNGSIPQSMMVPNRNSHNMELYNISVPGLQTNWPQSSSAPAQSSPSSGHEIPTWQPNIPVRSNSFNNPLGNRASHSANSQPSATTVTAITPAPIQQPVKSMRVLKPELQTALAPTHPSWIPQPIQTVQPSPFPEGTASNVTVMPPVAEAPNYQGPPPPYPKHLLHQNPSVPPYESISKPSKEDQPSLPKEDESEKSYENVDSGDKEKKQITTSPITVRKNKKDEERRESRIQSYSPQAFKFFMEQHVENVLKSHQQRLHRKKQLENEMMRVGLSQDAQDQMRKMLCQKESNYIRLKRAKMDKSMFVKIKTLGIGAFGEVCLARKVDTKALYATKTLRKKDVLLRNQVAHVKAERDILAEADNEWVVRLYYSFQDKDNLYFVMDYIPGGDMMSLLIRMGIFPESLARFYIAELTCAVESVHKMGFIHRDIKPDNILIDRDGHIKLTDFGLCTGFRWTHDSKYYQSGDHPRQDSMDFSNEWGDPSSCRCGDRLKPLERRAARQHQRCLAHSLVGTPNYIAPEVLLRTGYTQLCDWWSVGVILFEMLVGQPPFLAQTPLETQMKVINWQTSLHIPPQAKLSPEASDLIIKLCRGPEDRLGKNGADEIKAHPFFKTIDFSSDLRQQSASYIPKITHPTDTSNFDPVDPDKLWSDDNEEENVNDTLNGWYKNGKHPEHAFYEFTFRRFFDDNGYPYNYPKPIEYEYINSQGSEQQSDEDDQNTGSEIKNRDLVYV
How it was run: as §1

T1 sequence (P31749 whole entry, the tested form may be a part): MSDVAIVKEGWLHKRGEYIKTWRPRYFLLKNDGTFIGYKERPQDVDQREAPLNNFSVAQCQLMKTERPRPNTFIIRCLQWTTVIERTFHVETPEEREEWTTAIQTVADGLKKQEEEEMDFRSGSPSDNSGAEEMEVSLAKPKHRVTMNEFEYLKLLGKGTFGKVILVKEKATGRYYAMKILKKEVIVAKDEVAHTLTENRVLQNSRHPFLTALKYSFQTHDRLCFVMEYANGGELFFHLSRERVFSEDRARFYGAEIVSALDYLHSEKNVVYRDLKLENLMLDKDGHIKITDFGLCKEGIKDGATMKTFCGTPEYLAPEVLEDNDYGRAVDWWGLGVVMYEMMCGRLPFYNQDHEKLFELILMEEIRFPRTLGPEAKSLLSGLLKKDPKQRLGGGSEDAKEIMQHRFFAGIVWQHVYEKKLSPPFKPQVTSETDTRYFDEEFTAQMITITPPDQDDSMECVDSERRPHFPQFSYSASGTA

SMILES | IC50 [1] | IC50 [2]
Cc1cc(-c2ccnc3[nH]cc(C#N)c23)cc(F)c1[C@@]1(O)[C@H](C)CN(C(=O)[C@@H](C)N)C[C@@H]1C [Compound 2015, 4-(4-((3S,4S,5R)-1-(D-alanyl)-4-hydroxy-3,5-dimethylpiperidin-4-yl)-3-fluoro-5-methylphenyl)-1H-pyrrolo[2,3-b]pyridine-3-carbonitrile] | > 50000 nM | < 2.5 nM
Cc1cc(-c2ccnc3[nH]cc(C#N)c23)cc(F)c1[C@@]1(O)[C@H](C)CN(C(=O)C(N)C(F)(F)F)C[C@@H]1C (stereo partly drawn) [Compound 2017, 4-(4-((3S,4s,5R)-1-(2-amino-3,3,3-trifluoropropanoyl)-4-hydroxy-3,5-dimethylpiperidin-4-yl)-3-fluoro-5-methylphenyl)-1H-pyrrolo[2,3-b]pyridine-3-carbonitrile] | > 50000 nM | < 2.5 nM
Cc1cc(-c2ccnc3[nH]cc(C#N)c23)cc(F)c1[C@@]1(O)[C@H](C)CN(C(=O)[C@H](CO)N(C)C)C[C@@H]1C [Compound 2023, 4-(4-((3S,4R,5R)-1-(dimethyl-L-seryl)-4-hydroxy-3,5-dimethylpiperidin-4-yl)-3-fluoro-5-methylphenyl)-1H-pyrrolo[2,3-b]pyridine-3-carbonitrile] | > 50000 nM | < 2.5 nM
Cc1cc(-c2ccnc3[nH]cc(C#N)c23)cc(F)c1[C@@]1(O)[C@H](C)CNC[C@@H]1C [Compound 2024, 4-(3-fluoro-4-((3S,4s,5R)-4-hydroxy-3,5-dimethylpiperidin-4-yl)-5-methylphenyl)-1H-pyrrolo[2,3-b]pyridine-3-carbonitrile] | > 50000 nM | 37.9 nM

Now from value to molecule:

IC50 [1] | IC50 [2] | SMILES
> 50000 nM | < 2.5 nM | CNCC(=O)N1C[C@@H](C)[C@](O)(c2c(C)cc(-c3ccnc4[nH]cc(C#N)c34)cc2F)[C@@H](C)C1 [Compound 2012, 4-(3-fluoro-4-((3S,4s,5R)-4-hydroxy-3,5-dimethyl-1-(methylglycyl)piperidin-4-yl)-5-methylphenyl)-1H-pyrrolo[2,3-b]pyridine-3-carbonitrile]
> 50000 nM | 139 nM | Cc1cc(-c2ccnc3[nH]cc(C#N)c23)cc(F)c1[C@@]1(O)[C@H](C)CN(C(=O)CNCC(F)(F)F)C[C@@H]1C [Compound 2014, 4-(3-fluoro-4-((3S,4s,5R)-4-hydroxy-3,5-dimethyl-1-((2,2,2-trifluoroethyl)glycyl)piperidin-4-yl)-5-methylphenyl)-1H-pyrrolo[2,3-b]pyridine-3-carbonitrile]
